These results are taken from patent US5547980A, “Bicyclic sulfones, processes for their production and pharmaceutical agents containing them” (Boehringer Mannheim GmbH, priority 1991, dated 1996).

The structures appear in SMILES notation. Where a name gives a salt, the structure may show the parent alone.

The first assay deals with passively sensitized guinea-pig lung parenchymal strips. Description: Inhibition of the antigen-induced constriction of passively sensitized guinea-pig lung parenchymal strips in vitro (organ bath). Particulars: Cavia porcellus, 20 μg/ml, ovalbumin 0.1 μg/ml, 20 min/37° C. preincubation time (organ bath technique). In kind it is cell-based, guinea-pig (Pirbright-White). How it is done: Inhibition of the antigen-induced constriction of passively sensitized guinea-pig - lung parenchymal - strips in vitro (organ bath) For the in vitro examination of the compounds according to the invention, the inhibition of the antigen-induced constriction of passively sensitized guinea-pig lung parenchymal strips was measured as described in the following: Pirbright-White guinea-pigs were stunned by a blow on the neck and exsanguinated. The lungs were rinsed substantially free of blood in situ using Krebs buffer, pH 7.4. Subsequently the lung was excised, cut into strips (ca. 20×4×4 mm) and the strips were passively sensitized for one hour at room temperature with a 1:50 dilution of a homologous anti-ovalbumin antiserum and then washed once with Krebs buffer. The antiserum had previously been produced in guinea-pigs of the same strain according to […] (1) by repeated injection of ovalbumin (2×crystallized) with addition of complete Freund's adjuvant. The antiserum was stored undiluted at -18° C. until use. Subsequently the lung strips were suspended individually in 10 ml water baths on an isometric measuring recorder with an initial tension of 1.2 g. Afterwards the baths were filled with Krebs buffer and gassed continuously at 37° C. with O2 (95%) and CO2 (5%). The constrictions of the lung strips were recorded via an amplifier on a recorder. […] The inhibitory effects of the compounds according to the invention were expressed as percentage reduction of the constriction amplitudes of the "samples with test substance" in relation to the "untreated control constrictions". (1) […]. Johnstone Quantitative studies on anaphylaxis in guinea-pigs passively sensitized with homologous antibody. Inter. Arch. Allergy 41, 648-454 (1971) |% inhibition of the ovalbumin (0.1 μg/ml) induced |constriction of passively sensitized lung parenchymal strips |(guinea-pig) |20 min/37° C. preincubation time (organ bath technique)
As to `O=S1(=O)CC(N2CCCC2)C(N2CCCC2)c2ccc(Cl)cc21` (stereo not drawn) [3a), 7-chloro-3,4-bis-pyrrolidino-benzo[b]thian-1,1-dioxide], the inhibition (commonly the change of the read-out against control, counted positive when it falls) at 20 µg/mL was determined as 25%.
As for `CCN(CC)CC1=Cc2ccc(Cl)cc2S1(=O)=O` [Example 1, 6-chloro-2-(N,N-diethylamino-methyl)benzo[b]thiophene-1,1 dioxide], the inhibition at 20 µg/mL was determined as 53%.
The same measure, in the same setting: then `CCCCNC1CS(=O)(=O)c2cc(Cl)ccc2C1NCCCC` (stereo not drawn) [Example 5l), 7-chloro-3,4-bis-n-butyl-amino-benzo[b]thian-1,1-dioxide-dihydrochloride], with 25%; and `CCN(CC)CC1=Cc2cc(Cl)c(Cl)cc2S1(=O)=O` [Example 6, 5,6-dichloro-2-(N,N-diethylamino-methyl)benzo[b]-thiophene-1,1-dioxide-hydrochloride], with 51%.
Still for that read-out and setting: then `CCN(CC)CC1=Cc2ccc(Cl)c(Cl)c2S1(=O)=O` [Example 7, 6,7-dichloro-2-(N,N-diethylamino-methyl)benzo[b]thiophene-1,1-dioxide-hydrochloride], with 88%.

The assay is the same for the next values; noted with them: Cavia porcellus, 200 μg/ml (footnote *), ovalbumin 0.1 μg/ml, 20 min/37° C. preincubation time (organ bath technique).
`Cn1c(=O)c2[nH]cnc2n(C)c1=O` [aminophylline, reference compound]: the inhibition at 200 µg/mL was 26%.
